The values that follow come from US7939534B2, “Certain chemical entities, compositions, and methods” (Cytokinetics, Inc., priority 2006, dated 2011).

The assay deals with T1, chicken gizzard smooth muscle myosin subfragment-1 chemically crosslinked to either cardiac or skeletal actin (Gallus gallus, UniProt P10587).
T1 construct: chicken gizzard smooth muscle myosin subfragment-1; from tissue; host or cells: chicken gizzard
Briefly: Dose dependent smooth muscle myosin ATPase modulation (pyruvate kinase/horseradish peroxidase/pyruvate oxidase-coupled ATPase assay). It counts as biochemical. The following applies: read-out: IC50 Arithmetic Mean. Put shortly: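 Chicken gizzard smooth muscle myosin S1 crosslinked (EDC/NHS) to cardiac or skeletal actin, concentration titrated to a set ATPase rate. Pyruvate kinase/pyruvate oxidase/HRP-coupled assay, 0.15 mM ATP, 12 mM K-PIPES pH 7.00, 100 mM KCl, amplex red fluorescence; IC50 from 4-parameter fit.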

By IC50 is commonly meant the concentration that inhibits the measured activity by half.

Consider `NCc1ncccc1CNC(=O)c1cc(F)c(N2CC[C@@H](F)C2)nc1NCCc1cccc(F)c1` [Compound 53, (6-((3R)-3-fluoropyrrolidinyl)-5-fluoro-2-{[2-(3-fluorophenyl)ethyl]amino}(3-pyridyl))-N-{[2-(aminomethyl)(3-pyridyl)]methyl}carboxamide], for which the IC50 stood at 0.023 µM.
Then `O=C(NCc1cccnc1)c1ccc(N2CCC(c3ccncc3)C2)nc1NCCc1cccc(F)c1` (stereo not drawn) [Compound 96, (2-{[2-(3-fluorophenyl)ethyl]amino}-6-(3-(4-pyridyl)pyrrolidinyl)(3-pyridyl))-N-(3-pyridylmethyl)carboxamide], with 2.97 µM; and `O=C1CN(c2ccc(C(=O)NCc3cccnc3)c(NCCc3cccc(F)c3)n2)CCN1` [Compound 21, (2-{[2-(3-fluorophenyl)ethyl]amino}-6-(3-oxopiperazinyl)(3-pyridyl))-N-(3-pyridylmethyl)carboxamide], with 6.97 µM; and `O=C(NCc1cccnc1)c1ccc(N2CC[C@@H](O)C2)nc1NCCc1cccc(F)c1` [Compound 14, (6-((3R)-3-hydroxypyrrolidinyl)-2-{[2-(3-fluorophenyl)ethyl]amino}(3-pyridyl))-N-(3-pyridylmethyl)carboxamide], with 0.533 µM.
Then `NCc1ncccc1CNC(=O)c1cc(F)c(N2CCCC2)nc1NCCc1cccc(F)c1` [Compound 78, N-{[2-(aminomethyl)(3-pyridyl)]methyl}(5-fluoro-2-{[2-(3-fluorophenyl)ethyl]amino}-6-pyrrolidinyl(3-pyridyl))carboxamide], with 0.0259 µM; and `C[C@H](CNC(=O)c1cc(F)c(N2CCCC2)nc1NCCc1cccc(F)c1)NC(=O)CNC(=O)OC(C)(C)C` [Compound 63, N-{(1R)-2-[(5-fluoro-2-{[2-(3-fluorophenyl)ethyl]amino}-6-pyrrolidinyl(3-pyridyl))carbonylamino]-isopropyl}-2-[(tert-butoxy)carbonylamino]acetamide], with 15.1 µM.
Then `CC1CCN(c2ccc(C(=O)NCc3cccnc3)c(NCCc3ccccn3)n2)CC1` [Compound 34, {6-(4-methylpiperidyl)-2-[(2-(2-pyridyl)ethyl)amino](3-pyridyl)}-N-(3-pyridylmethyl)carboxamide], with 14.3 µM.
With `CC(C)(C)OC(=O)N1CC=C(c2ccc(C(=O)NCc3cccnc3)c(NCCc3cccc(F)c3)n2)CC1` [Compound 58, tert-butyl 4-(6-{[2-(3-fluorophenyl)ethyl]amino}-5-[N-(3-pyridylmethyl)carbamoyl]-2-pyridyl)-1,2,5,6-tetrahydropyridinecarboxylate], the IC50 is 2.15 µM.
The value for `O=C(NCc1cccnc1)c1ccc(N2CCC(CO)CC2)nc1NCCc1cccc(F)c1` [Compound 19, (2-{[2-(3-fluorophenyl)ethyl]amino}-6-[4-(hydroxymethyl)piperidyl](3-pyridyl))-N-(3-pyridylmethyl)carboxamide] was 0.382 µM; that for `CNC(=O)CNC(=O)c1ccc(N2CCC(F)(F)C2)nc1NCCc1cccc(F)c1` [Compound 97, 2-[(6-(3,3-difluoropyrrolidinyl)-2-{[2-(3-fluorophenyl)ethyl]amino}(3-pyridyl))carbonylamino]-N-methylacetamide] was 0.931 µM; that for `O=C(NCc1cccnc1)c1ccc(N2CC[C@H](O)C2)nc1NCCc1cccc(F)c1` [Compound 18, (6-((3S)-3-hydroxypyrrolidinyl)-2-{[2-(3-fluorophenyl)ethyl]amino}(3-pyridyl))-N-(3-pyridylmethyl)carboxamide] was 1.02 µM.
The value for `CC(C)(C)OC(=O)NCc1ncccc1CNC(=O)c1cc(F)c(N2CC[C@@H](F)C2)nc1NCCc1cccc(F)c1` [Compound 65, (6-((3R)-3-fluoropyrrolidinyl)-5-fluoro-2-{[2-(3-fluorophenyl)ethyl]amino}(3-pyridyl))-N-[(2-{[(tert-butoxy)carbonylamino]methyl}(3-pyridyl))methyl]carboxamide] was 8.24 µM.
